From paper PMC9736855, “Discovery of 3-Amino-1H-pyrazole-Based Kinase Inhibitors to Illuminate the Understudied PCTAIRE Family” (International Journal of Molecular Sciences, 2022)

Tests used:
Experiment in all cases: NanoBRET
Assay type in all cases: cell-based
CDK10/Cyclin L2 = CDK10/Cyclin L2 (Homo sapiens, UniProt Q15131); conditions: read-out: NanoBRET EC50 ± SEM CDK10/Cyclin L2
Procedure: (§1) The assay was performed as described previously. In brief: Full-length kinases were obtained as plasmids cloned in frame with a terminal NanoLuc-fusion (Promega, Madison, WI, USA), as specified in table (Table S6). Plasmids were transfected into HEK293T cells using FuGENE HD (Promega, E2312) and proteins were allowed to express for 20h. Serially diluted inhibitor and NanoBRET Kinase Tracer (Promega) at a concentration determined previously as the KD,app (Table S5) were pipetted into white 384-well plates (Greiner 781207) using an Echo acoustic dispenser (Labcyte, San Jose, CA, USA). The corresponding protein-transfected cells were added and reseeded at a density of 2.5 × 10^5 cells/mL after trypsinization and resuspending in Opti-MEM without phenol red (Life Technologies, Carlsbad, CA, USA). The system was allowed to equilibrate for 2 h at 37 °C/5% CO2 prior to BRET measurements. To measure BRET, NanoBRET NanoGlo Substrate + Extracellular NanoLuc Inhibitor (Promega, N2540) was added as per the manufacturer’s protocol, and filtered luminescence was measured on a PHERAstar plate reader (BMG Labtech, Ortenberg, Germany) equipped with a luminescence filter pair (450 nm BP filter (donor) and 610 nm LP filter (acceptor)). Competitive displacement data were then graphed using GraphPad Prism 9 software using a normalized 3-parameter curve fit with the following equation: Y = 100/(1 + 10^(X–LogEC50)).

CDK4/Cyclin D3 = target: T1, CDK4/Cyclin D3 (Homo sapiens, UniProt P11802); conditions: read-out: NanoBRET EC50 ± SEM CDK4/Cyclin D3
T1 construct: Full-length kinases were obtained as plasmids cloned in frame with a terminal NanoLuc-fusion; CS1810C87 (CCND3); host or cells: HEK293T
T1 sequence (P11802 whole entry, the tested form may be a part): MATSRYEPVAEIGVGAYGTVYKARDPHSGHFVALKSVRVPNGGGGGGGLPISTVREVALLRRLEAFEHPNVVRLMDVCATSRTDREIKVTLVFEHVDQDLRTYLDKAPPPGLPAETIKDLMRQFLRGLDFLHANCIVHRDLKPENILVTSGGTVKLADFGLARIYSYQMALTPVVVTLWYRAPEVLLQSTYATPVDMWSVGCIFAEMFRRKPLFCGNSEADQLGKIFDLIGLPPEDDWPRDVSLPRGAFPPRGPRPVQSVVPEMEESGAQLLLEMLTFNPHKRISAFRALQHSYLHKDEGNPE
T1 sequence (P30281 whole entry partner, the tested form may be a part): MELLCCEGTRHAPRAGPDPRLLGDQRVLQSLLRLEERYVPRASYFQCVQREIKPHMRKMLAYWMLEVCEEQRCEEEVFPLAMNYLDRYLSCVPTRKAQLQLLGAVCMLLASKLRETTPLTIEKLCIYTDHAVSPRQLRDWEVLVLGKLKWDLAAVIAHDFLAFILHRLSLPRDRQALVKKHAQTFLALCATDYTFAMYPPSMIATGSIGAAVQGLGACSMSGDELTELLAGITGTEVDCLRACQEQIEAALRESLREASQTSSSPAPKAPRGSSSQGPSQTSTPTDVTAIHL
Procedure: as §1

CDK20/Cyclin H = CDK20/Cyclin H (Homo sapiens, UniProt Q8IZL9); conditions: read-out: NanoBRET EC50 ± SEM CDK20/Cyclin H
Chain of CDK20/Cyclin H (Q8IZL9 whole entry): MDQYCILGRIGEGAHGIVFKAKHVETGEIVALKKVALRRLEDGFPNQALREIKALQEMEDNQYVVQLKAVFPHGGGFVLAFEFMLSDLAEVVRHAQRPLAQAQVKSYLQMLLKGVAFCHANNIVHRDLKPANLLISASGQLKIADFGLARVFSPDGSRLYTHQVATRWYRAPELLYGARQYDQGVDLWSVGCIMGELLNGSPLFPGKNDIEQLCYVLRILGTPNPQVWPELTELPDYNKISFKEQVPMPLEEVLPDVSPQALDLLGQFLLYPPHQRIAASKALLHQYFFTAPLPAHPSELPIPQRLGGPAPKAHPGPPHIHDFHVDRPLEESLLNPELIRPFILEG
Chain of CDK20/Cyclin H (P51946 whole entry partner): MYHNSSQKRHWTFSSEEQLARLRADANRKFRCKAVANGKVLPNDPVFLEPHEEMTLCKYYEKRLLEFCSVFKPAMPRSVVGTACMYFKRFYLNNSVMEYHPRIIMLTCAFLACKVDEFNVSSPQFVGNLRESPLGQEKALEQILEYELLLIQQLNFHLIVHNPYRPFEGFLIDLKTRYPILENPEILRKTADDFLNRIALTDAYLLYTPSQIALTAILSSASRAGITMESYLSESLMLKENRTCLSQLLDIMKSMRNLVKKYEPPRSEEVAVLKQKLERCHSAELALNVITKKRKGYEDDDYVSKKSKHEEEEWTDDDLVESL
Procedure: as §1

CDK3/Cyclin E1 = target: T2, CDK3/Cyclin E1 (Homo sapiens, UniProt Q00526); conditions: read-out: NanoBRET EC50 ± SEM CDK3/Cyclin E1
T2 construct: Full-length kinases were obtained as plasmids cloned in frame with a terminal NanoLuc-fusion; CS1810C171 (CCNE1); host or cells: HEK293T
T2 sequence (Q00526 whole entry, the tested form may be a part): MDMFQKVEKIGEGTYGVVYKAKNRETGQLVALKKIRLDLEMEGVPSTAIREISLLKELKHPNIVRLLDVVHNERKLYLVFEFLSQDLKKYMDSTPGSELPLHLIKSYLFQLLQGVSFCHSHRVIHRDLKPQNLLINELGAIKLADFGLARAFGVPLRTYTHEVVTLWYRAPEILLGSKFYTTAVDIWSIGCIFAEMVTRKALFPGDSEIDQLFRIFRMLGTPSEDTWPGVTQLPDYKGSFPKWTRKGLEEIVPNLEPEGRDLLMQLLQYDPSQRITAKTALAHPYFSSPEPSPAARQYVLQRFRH
T2 sequence (P24864 whole entry partner, the tested form may be a part): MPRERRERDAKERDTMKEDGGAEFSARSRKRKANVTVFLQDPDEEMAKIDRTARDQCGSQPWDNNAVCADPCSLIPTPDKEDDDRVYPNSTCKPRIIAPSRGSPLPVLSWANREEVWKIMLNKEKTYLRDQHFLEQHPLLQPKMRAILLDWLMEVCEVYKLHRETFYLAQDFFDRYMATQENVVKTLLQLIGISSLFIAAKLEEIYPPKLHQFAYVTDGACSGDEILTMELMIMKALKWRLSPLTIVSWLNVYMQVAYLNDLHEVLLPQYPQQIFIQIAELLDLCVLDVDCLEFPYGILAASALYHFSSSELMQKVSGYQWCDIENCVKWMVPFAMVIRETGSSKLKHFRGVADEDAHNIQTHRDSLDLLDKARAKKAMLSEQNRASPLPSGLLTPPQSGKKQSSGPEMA
Procedure: as §1

CDK11A/Cyclin L2 = target: T3, CDK11A/Cyclin L2 (Homo sapiens, UniProt Q9UQ88); conditions: read-out: NanoBRET EC50 ± SEM CDK11A/Cyclin L2
T3 sequence (Q9UQ88 1-783): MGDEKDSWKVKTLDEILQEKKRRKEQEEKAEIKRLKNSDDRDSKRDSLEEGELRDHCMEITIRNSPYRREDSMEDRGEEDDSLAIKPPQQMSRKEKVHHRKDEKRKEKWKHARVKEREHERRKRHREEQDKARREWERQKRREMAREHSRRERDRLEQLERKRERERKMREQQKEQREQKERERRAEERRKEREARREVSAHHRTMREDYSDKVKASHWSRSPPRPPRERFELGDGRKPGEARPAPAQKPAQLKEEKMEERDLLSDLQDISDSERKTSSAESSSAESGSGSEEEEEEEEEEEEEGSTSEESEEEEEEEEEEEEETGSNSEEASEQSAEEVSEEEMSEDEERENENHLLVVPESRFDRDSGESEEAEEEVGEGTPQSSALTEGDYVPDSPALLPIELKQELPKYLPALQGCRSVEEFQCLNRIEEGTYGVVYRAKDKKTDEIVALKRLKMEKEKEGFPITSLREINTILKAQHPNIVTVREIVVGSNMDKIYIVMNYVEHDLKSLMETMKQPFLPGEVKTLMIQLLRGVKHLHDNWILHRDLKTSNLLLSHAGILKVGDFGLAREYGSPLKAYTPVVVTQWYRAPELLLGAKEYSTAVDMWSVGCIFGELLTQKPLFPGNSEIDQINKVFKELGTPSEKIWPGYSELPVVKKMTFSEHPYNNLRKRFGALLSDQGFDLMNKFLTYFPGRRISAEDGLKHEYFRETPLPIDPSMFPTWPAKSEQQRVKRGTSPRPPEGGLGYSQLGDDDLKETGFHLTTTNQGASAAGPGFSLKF
T3 sequence (Q96S94 1-520 partner): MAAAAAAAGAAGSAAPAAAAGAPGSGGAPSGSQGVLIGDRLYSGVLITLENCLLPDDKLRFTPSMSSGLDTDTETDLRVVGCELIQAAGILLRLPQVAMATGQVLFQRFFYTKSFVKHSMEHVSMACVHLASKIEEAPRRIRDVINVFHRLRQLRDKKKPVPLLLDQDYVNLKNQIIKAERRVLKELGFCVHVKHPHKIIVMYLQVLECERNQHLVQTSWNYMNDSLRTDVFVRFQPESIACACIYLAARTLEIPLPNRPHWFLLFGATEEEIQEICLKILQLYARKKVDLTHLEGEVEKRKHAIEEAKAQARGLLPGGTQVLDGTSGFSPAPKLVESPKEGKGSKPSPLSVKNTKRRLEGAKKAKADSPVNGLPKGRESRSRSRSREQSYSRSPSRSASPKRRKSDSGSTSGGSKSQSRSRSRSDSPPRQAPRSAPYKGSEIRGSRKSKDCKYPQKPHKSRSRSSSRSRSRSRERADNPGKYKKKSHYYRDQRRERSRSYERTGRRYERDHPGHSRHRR
Procedure: as §1

CDK2/Cyclin D1 = target: T4, CDK2/Cyclin D1 (Homo sapiens, UniProt P24941); conditions: read-out: NanoBRET EC50 ± SEM CDK2/Cyclin D1
T4 construct: Full-length kinases were obtained as plasmids cloned in frame with a terminal NanoLuc-fusion; CS1810C118 (CCND1); host or cells: HEK293T
Procedure: as §1

CDK7 = target: T5, CDK7 (Homo sapiens, UniProt P50613); conditions: read-out: NanoBRET EC50 ± SEM CDK7
T5 construct: Full-length kinases were obtained as plasmids cloned in frame with a terminal NanoLuc-fusion; host or cells: HEK293T
T5 sequence (P50613 whole entry, the tested form may be a part): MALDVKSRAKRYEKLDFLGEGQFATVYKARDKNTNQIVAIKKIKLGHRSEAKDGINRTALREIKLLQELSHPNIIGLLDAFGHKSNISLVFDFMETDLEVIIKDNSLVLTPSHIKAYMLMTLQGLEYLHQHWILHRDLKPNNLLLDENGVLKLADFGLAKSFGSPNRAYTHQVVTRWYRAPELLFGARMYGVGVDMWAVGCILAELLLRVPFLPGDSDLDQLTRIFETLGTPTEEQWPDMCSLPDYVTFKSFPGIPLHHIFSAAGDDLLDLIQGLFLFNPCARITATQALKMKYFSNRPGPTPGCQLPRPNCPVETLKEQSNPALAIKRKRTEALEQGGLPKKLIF
Procedure: as §1

CDK18/Cyclin Y = CDK18/Cyclin Y (Homo sapiens, UniProt Q07002); conditions: read-out: NanoBRET EC50 ± SEM CDK18/Cyclin Y
Chain of CDK18/Cyclin Y (Q07002 whole entry): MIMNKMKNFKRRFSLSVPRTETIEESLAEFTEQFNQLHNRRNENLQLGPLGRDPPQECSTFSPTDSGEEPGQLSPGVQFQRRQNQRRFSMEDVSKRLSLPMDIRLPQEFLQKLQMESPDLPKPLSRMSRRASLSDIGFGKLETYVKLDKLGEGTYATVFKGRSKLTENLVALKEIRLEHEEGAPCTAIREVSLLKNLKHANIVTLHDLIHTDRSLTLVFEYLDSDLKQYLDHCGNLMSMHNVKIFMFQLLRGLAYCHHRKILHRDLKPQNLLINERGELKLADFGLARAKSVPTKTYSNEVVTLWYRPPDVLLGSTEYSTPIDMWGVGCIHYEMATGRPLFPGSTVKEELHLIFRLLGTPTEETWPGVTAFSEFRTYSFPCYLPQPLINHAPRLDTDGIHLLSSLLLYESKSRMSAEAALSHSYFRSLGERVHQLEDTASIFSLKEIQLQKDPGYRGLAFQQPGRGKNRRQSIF
Chain of CDK18/Cyclin Y (Q8ND76 2-341 partner limits assumed): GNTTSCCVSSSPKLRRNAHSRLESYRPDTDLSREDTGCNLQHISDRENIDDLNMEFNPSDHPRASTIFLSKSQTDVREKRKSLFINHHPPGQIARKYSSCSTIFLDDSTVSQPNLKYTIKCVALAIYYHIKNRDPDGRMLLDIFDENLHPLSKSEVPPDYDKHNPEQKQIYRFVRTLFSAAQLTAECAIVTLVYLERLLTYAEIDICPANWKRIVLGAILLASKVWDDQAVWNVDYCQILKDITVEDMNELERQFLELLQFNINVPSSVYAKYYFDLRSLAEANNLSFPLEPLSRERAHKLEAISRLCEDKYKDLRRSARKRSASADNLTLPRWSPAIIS
Procedure: as §1

CDK6/Cyclin D1 = target: T6, CDK6/Cyclin D1 (Homo sapiens, UniProt Q00534); conditions: read-out: NanoBRET EC50 ± SEM CDK6/Cyclin D1
T6 construct: Full-length kinases were obtained as plasmids cloned in frame with a terminal NanoLuc-fusion; CS1810C118 (CCND1); host or cells: HEK293T
T6 sequence (Q00534 whole entry, the tested form may be a part): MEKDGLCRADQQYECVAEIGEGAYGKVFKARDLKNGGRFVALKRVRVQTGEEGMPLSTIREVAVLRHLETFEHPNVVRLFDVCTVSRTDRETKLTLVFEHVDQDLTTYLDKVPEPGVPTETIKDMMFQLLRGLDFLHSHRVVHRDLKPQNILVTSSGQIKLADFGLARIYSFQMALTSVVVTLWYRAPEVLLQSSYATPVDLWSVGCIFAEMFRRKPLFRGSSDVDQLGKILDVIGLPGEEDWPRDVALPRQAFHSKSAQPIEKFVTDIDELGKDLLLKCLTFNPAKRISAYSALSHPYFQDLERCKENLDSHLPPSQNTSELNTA
T6 sequence (P24385 whole entry partner, the tested form may be a part): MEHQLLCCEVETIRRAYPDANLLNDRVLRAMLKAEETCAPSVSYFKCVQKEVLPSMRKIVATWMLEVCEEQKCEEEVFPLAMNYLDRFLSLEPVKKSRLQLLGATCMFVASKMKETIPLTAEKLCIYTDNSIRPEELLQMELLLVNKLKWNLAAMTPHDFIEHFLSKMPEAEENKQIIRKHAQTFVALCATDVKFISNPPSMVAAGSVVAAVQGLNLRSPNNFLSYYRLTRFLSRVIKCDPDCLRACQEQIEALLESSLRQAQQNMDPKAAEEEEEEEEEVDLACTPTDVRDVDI
Procedure: as §1

CDK1/Cyclin E1 = target: T7, CDK1/Cyclin E1 (Homo sapiens, UniProt P06493); conditions: read-out: NanoBRET EC50 ± SEM CDK1/Cyclin E1
T7 construct: Full-length kinases were obtained as plasmids cloned in frame with a terminal NanoLuc-fusion; CS1810C171 (CCNE1); host or cells: HEK293T
T7 sequence (P06493 whole entry, the tested form may be a part): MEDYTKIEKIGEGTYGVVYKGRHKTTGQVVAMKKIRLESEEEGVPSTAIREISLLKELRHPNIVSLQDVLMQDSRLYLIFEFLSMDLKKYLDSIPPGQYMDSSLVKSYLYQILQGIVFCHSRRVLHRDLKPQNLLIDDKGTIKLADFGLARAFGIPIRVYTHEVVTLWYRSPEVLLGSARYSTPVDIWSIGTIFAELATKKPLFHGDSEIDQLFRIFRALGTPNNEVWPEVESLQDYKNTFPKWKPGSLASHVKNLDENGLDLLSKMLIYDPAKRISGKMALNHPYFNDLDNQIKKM
Procedure: as §1

Chain of CDK10/Cyclin L2 (Q15131 whole entry, the tested form may be a part): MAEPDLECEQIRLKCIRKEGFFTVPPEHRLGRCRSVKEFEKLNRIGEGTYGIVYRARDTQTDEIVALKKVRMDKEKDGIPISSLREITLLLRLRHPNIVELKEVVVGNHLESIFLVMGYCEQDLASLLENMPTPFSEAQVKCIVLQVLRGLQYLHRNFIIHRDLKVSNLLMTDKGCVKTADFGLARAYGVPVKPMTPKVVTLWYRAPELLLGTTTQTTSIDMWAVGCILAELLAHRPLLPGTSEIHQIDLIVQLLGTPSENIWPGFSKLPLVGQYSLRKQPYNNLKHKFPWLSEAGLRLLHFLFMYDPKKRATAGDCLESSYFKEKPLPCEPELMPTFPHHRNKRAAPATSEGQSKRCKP

| SMILES | EC50 (CDK10/Cyclin L2) | EC50 (CDK4/Cyclin D3) | EC50 (CDK20/Cyclin H) | EC50 (CDK3/Cyclin E1) | EC50 (CDK11A/Cyclin L2) | EC50 (CDK2/Cyclin D1) | EC50 (CDK7) | EC50 (CDK18/Cyclin Y) | EC50 (CDK6/Cyclin D1) | EC50 (CDK1/Cyclin E1) |
| --- | --- | --- | --- | --- | --- | --- | --- | --- | --- | --- |
| N#CCc1ccc(Nc2nccc(Nc3cc(C4CC4)[nH]n3)n2)cc1 [compound 1, reference compound] | 325 ± 36.4 nM | 32.1 ± 3.1 nM | 2660 ± 568 nM | 11.8 ± 4.5 nM | 760 ± 460 nM | 38.6 ± 17.3 nM | 103 ± 43.2 nM | 25 ± 8.9 nM | 10.5 ± 3.8 nM | 5.2 ± 2.5 nM |
| CC(C)(C)OC(=O)Nc1ccc(CNc2nccc(Nc3cc(C(=O)OC(C)(C)C)[nH]n3)n2)cc1 [43d, tert-butyl 3-((2-((4-((tert-butoxycarbonyl)amino)benzyl)amino)pyrimidin-4-yl)amino)-1H-pyrazole-5-carboxylate] | 651 nM | 908 ± 113 nM | 1710 ± 222 nM | 2750 ± 959 nM | 3460 ± 1840 nM | 3070 ± 1860 nM | 1460 ± 552 nM | 121 nM | 1740 ± 206 nM | 582 nM |
| COC(=O)c1cc(Nc2ccnc(NCc3ccc(NC(=O)OC(C)(C)C)cc3)n2)[nH]n1 [21i, methyl 5-((2-((4-((tert-butoxycarbonyl)amino)benzyl)amino)pyrimidin-4-yl)amino)-1H-pyrazole-3-carboxylate] | 7930 ± 2930 nM | 6780 ± 1460 nM | 8420 ± 629 nM | 12400 ± 4610 nM | 20500 ± 11800 nM | 33500 ± 1520 nM | 10400 ± 4770 nM | 1620 ± 287 nM | 7450 ± 1740 nM | 6420 ± 3460 nM |
| CC(C)OC(=O)c1cc(Nc2ccnc(NCc3ccc(NC(=O)OC(C)(C)C)cc3)n2)n[nH]1 [42d, isopropyl 3-((2-((4-((tert-butoxycarbonyl)amino)benzyl)amino)pyrimidin-4-yl)amino)-1H-pyrazole-5-carboxylate] | 333.6 ± 0.2 nM | 508 ± 86.6 nM | 745 ± 350 nM | 1270 ± 522 nM | 2090 ± 599 nM | 4860 ± 2390 nM | 1140 ± 658 nM | 128 ± 10.4 nM | 959 ± 391 nM | 200 ± 42.8 nM |
